Columns and labels:
[1] = system: tissue plasminogen activator (t-PA) released by human umbilical cord venous endothelial cells; test: tissue plasminogen activator release; assay type: cell-based
coxsackie B2 virus = test: effect on viruses, coxsackie B2; assay type: cell-based; details: concentrations ≤100 ug/ml
Description: (§1) Tests were performed according to D. A. Vanden Berghe et al., Inst. Pasteur 84,101 (1986). Rhamnolipid (II) was toxic for VERO cells in concentrations ≥200 ug/ml, and cytotoxic on MT4 cells in concentrations >169.40 ug/ml.

mice C57B1/6 [2] = test: range-finding study phase (single intravenous dose)
[3] = as above; details: mouse, in vivo, iv
mice C57B1/6 [4] = details: mouse, in vivo
Description: Tests were performed on mice C57B1/6, Animal source: Bantin and Kingman. This was done following the procedures described elsewhere in Technical Report Series, National Toxicology Program, U.S. Department of Health and Human services.
Examinations were made in all tests on the following tissues from each mouse necropsied: bone (femur), bone marrow (femur)-slide only, brain, colon, duodenum, testes, heart, kidneys, liver, lungs (infuse with formalin), pancreas, spleen, muscle, adrenal nodes, uterus, gastric.

[5] = system: Dopamine D2A (human recombinant); test: [3H] spiperone dopamine D2A receptor inhibition; assay type: binding; details: 100 uM
mice C57B1/6 [6] = test: range-finding study phase (five doses per five days, one dose per day)
in vitro [7] = details: human, mt4 cells
bacterial revertants = test: Ames test; assay type: cell-based; details: 10, 100, 200, 500, 1000 ug/plate
Description: Tests were performed according to the method described by Ames N. Bruce et al. (Mutation Research, 31 (1975), 347- 364). Test concentrations of rhamnolipid (II) were 10, 100, 200, 500, 1000 ug/plate.
In the range of tested rhamnolipid concentrations, the number of bacterial revertants per Petri dish was in the range of spontaneous revertants which are present without S9 mixture. Therefore, it can be concluded that Rhamnolipid (II) was not mutagenic at the tested concentrations.

beta-galactosidase = test: enzyme inhibition, beta-galactosidase; assay type: biochemical
Description: (§2) Rhamnolipid (II) was tested in vitro against a wide array of enzymes.
(§3) The following enzymes were inhibited at the various rhamnolipid concentrations indicated:
(§4) All enzyme assays were done spectrophotometrically by computer linked automatic microplate reader (Labsystem Multiskan) and Diode Array spectrophotometer (Perkin Elmer).

in vitro [8] = details: monkey, vero cells
[9] = system: B-cells isolated from mouse spleen; test: B-lymphocyte proliferation + LPS; assay type: cell-based
Description: Procedure: B-cells were isolated from mouse spleen using convnetional procedures, and suspended in DMEM. 10^6 cells/ml were incubated overnight at 37° C. in the presence of 10 ug/ml lipopolysaccharide (LPS) to assess stimulation (positive score, related to 1 ng/ml rat interleukin-5) or suppression (negative score, related to control) of cell proliferation. The test substance was evaluated under these conditions at 10, 1, 0.1, and 0.01 uM. After overnight incubation, 2 uCi [^3 H] thymidine was added to each well. Cells were harvested after an additional 48 hour incubation, and thymidine incorporation assessed by liquid scintillation counting.

[10] = system: A431 human epidermal cells; details: in particular in the presence of PMA
polio I virus = assay type: cell-based; details: concentrations ≤100 ug/ml
Staphylococcus aureus = test: minimum inhibitory concentration, Staphylococcus aureus; assay type: cell-based; details: in tested medium
Source text: The Minimum inhibitory concentration (MIC) of Rhamnolipid II for Candida albicans, Escherichia coli, Staphylococcus aureus and Pseudomonas aeruginosa was >0.5% in tested medium.

[11] = molecular target: Dopamine D1 (human recombinant) (Homo sapiens, UniProt P21728); test: [3H] SCH23390 dopamine D1 receptor inhibition; assay type: binding; details: 0.5% DMSO
Candida albicans = test: immunomodulation: infection with Candida albicans; assay type: in vivo, mouse (ICR, female); details: for Survivor No.: n = 10
Description: The test compound or vehicle was administered i.p. to groups of 10 mice 1 hour before IV, challenge with suspension of C. albicans sufficient to result in 90 to 100% mortality within 10 days in the vehicle treated control group. A greater than 30 percent survival for any treated group is considered very significant, and possibly a result of immunomodulation, while an increase of 20% is considered a moderate immunomodulation activity.

herpes simplex virus = test: effect on viruses, herpes simplex; assay type: cell-based; details: concentrations ≤100 ug/ml
Description: as §1

trypsin = test: enzyme inhibition, trypsin; assay type: biochemical
Description: as §2, §3, §4

alpha-glucosidase = test: enzyme inhibition, alpha-glucosidase; assay type: biochemical
Description: as §2, §4

[12] = fourth day after application, IV
[13] = five doses per five days, intraperitoneal

Chain of Dopamine D1 (human recombinant) (P21728 whole entry): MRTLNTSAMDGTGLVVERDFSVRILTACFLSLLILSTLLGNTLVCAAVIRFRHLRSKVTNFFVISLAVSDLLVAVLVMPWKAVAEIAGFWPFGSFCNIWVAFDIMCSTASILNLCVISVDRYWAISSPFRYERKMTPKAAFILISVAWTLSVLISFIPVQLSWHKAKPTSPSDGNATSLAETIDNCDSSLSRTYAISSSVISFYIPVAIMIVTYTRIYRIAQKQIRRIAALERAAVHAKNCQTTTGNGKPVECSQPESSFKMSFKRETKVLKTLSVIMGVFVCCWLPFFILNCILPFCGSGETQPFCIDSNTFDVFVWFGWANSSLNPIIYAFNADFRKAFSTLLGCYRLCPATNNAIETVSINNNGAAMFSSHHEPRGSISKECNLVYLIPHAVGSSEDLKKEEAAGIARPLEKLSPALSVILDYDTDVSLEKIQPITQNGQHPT

CCCCCCCC(CC(=O)O)OC(=O)CC(CCCCCCC)O[C@@H]1O[C@@H](C)[C@H](O)[C@@H](O)[C@H]1O[C@@H]1O[C@@H](C)[C@H](O)[C@@H](O)[C@H]1O (stereo partly drawn) [Rhamnolipid (II), (alpha-L-rhamnopyranosyl-(1,2)alpha-L-rhamnopyranosyl)-3-hydroxydecanoyl-3-hydroxydecanoic acid]
t-PA release induced by PMA ([1]; 0.1 mg/ml, PMA induced): slightly inhibited
basal t-PA release ([1]; basal): no effect
antiviral activity (coxsackie B2 virus): no activity
single dose toxicity (mice C57B1/6 [2]; IV application): 7.5 mg/kg
lymphocytes (mice C57B1/6 [2]; [12]): significant decrease
neutrophils (mice C57B1/6 [2]; [12]): significant increase
behavior and appearance of treated mice (mice C57B1/6 [2]; observation period, IV single dose): no changes
lower bracket dose (LBD) (mice C57B1/6 [2]; single intravenous dose): 67.5 mg/kg
upper bracket dose (UBD) (mice C57B1/6 [2]; single intravenous dose): 127.5 mg/kg
LD50 [3]: 105 mg/kg
pathohistological changes (mice C57B1/6 [4]): none of the regressive-progressive or inflammatory type of changes were detected
inhibition of the dopamine D2A receptor [5]: 53%
lower bracket dose (LBD) (mice C57B1/6 [6]; [13]): 45 mg/kg
single dose toxicity (mice C57B1/6 [6]; [13]): 5 mg/kg
upper bracket dose (UBD) (mice C57B1/6 [6]; [13]): 125 mg/kg
basophiles (mice C57B1/6 [6]; fourth day after application): significant increase
eosinophiles (mice C57B1/6 [6]; fourth day after application): significant increase
lymphocytes (mice C57B1/6 [6]; fourth day after application): significant decrease
neutrophils (mice C57B1/6 [6]; fourth day after application): significant increase
behavior and appearance of treated mice (mice C57B1/6 [6]; observation period): no changes
MCC (in vitro [7]): > 169 µg/mL
mutagenicity (Ames test) (bacterial revertants): not mutagenic
mutagenicity (Ames test) (bacterial revertants; listed as rhamnolipid II): negative
concentration at which the enzyme was inhibited (beta-galactosidase): 100 µg/mL
MCC (in vitro [8]): ≥ 200 µg/mL
B-cell proliferation ([9]; 10 uM and 1 uM, added lipopolysaccharide): significant suppression
activation at 0.001 µM ([9]; Mus musculus, B-cell, read-out: % Stimulation (+)/Suppression (-)): 13%
activation at 0.01 µM ([9]; Mus musculus, B-cell, 0.01 uM, LPS, 0.5% DMSO, read-out: % Stimulation (+)/Suppression (-)): -15%
activation at 0.1 µM ([9]; Mus musculus, B-cell, 0.1 uM, LPS, 0.5% DMSO, read-out: % Stimulation (+)/Suppression (-)): -9%
activation at 1 µM ([9]; Mus musculus, B-cell, 1 uM, LPS, 0.5% DMSO, read-out: % Stimulation (+)/Suppression (-)): -25%
activation at 10 µM ([9]; Mus musculus, B-cell, 10 uM, LPS, 0.5% DMSO, read-out: % Stimulation (+)/Suppression (-)): -54%
A431 cell growth [10]: suppressed A431 cell growth
antiviral activity (polio I virus): no activity
Minimum inhibitory concentration (MIC) (Staphylococcus aureus): > 0.5%
inhibition at 0.01 µM ([11]; 0.01 μM): 8%
inhibition at 1 µM ([11]; 1 μM): 8%
inhibition at 100 µM ([11]; 100 μM): 101%
immunomodulation activity (Candida albicans; 10 mg/kg and 1 mg/kg): moderate activity
Death, days post-inoculum 0-1 (Candida albicans; IP 0.1 × 3 mg/kg): 3 #/10 Mice
Death, days post-inoculum 2-3 (Candida albicans; IP 0.1 × 3 mg/kg): 4 #/10 Mice
Death, days post-inoculum 4-6 (Candida albicans; IP 0.1 × 3 mg/kg): 1 #/10 Mice
Death, days post-inoculum 7-9 (Candida albicans; IP 0.1 × 3 mg/kg): 0 #/10 Mice
Response Inc. % (Candida albicans; IP 0.1 × 3 mg/kg): 0%
Survivor No. (Candida albicans; IP 0.1 × 3 mg/kg): 2
Death, days post-inoculum 0-1 (Candida albicans; IP 1 × 3 mg/kg): 2 #/10 Mice
Death, days post-inoculum 2-3 (Candida albicans; IP 1 × 3 mg/kg): 3 #/10 Mice
Death, days post-inoculum 4-6 (Candida albicans; IP 1 × 3 mg/kg): 1 #/10 Mice
Death, days post-inoculum 7-9 (Candida albicans; IP 1 × 3 mg/kg): 0 #/10 Mice
Response Inc. % (Candida albicans; IP 1 × 3 mg/kg): 20%
Survivor No. (Candida albicans; IP 1 × 3 mg/kg): 4
Death, days post-inoculum 0-1 (Candida albicans; IP 10 × 3 mg/kg): 0 #/10 Mice
Death, days post-inoculum 2-3 (Candida albicans; IP 10 × 3 mg/kg): 5 #/10 Mice
Death, days post-inoculum 4-6 (Candida albicans; IP 10 × 3 mg/kg): 1 #/10 Mice
Death, days post-inoculum 7-9 (Candida albicans; IP 10 × 3 mg/kg): 0 #/10 Mice
Response Inc. % (Candida albicans; IP 10 × 3 mg/kg): 20%
Survivor No. (Candida albicans; IP 10 × 3 mg/kg): 4
Death, days post-inoculum 0-1 (Candida albicans; IP 100 × 3 mg/kg): 6 #/10 Mice
Death, days post-inoculum 2-3 (Candida albicans; IP 100 × 3 mg/kg): 4 #/10 Mice
Death, days post-inoculum 4-6 (Candida albicans; IP 100 × 3 mg/kg): 0 #/10 Mice
Death, days post-inoculum 7-9 (Candida albicans; IP 100 × 3 mg/kg): 0 #/10 Mice
Response Inc. % (Candida albicans; IP 100 × 3 mg/kg): 0%
Survivor No. (Candida albicans; IP 100 × 3 mg/kg): 0
in vivo immunomodulation activity (Candida albicans; summary, no dose stated): moderate
antiviral activity (herpes simplex virus): no activity
concentration at which the enzyme was inhibited (trypsin): 1 mg/mL
effect on enzyme (alpha-glucosidase): no effect
